Reference: patent publication US11040959B2, “Diprovocims: a new and potent class of TLR agonists” (The Scripps Research Institute, priority 2016, dated 2021)
Read-outs that look alike come from different tables or passages of the source.

Key:
[1] = system: differentiated human THP-1 cells; test: stimulated release of TNF-α from differentiated human THP-1 cells (ELISA, dose-response); assay type: cell-based; details: for EC50: Homo sapiens
Description: A screening campaign was conducted with nearly 100,000 compounds [(a) Whitby et al., Acc. Chem. Res. 2012, 45:1698-1709; and (b) Boger et al., Angew. Chem. Int. Ed. 2003, 42:4138-4176], using a newly developed functional assay that measured the stimulated release of TNF-α from treated human THP-1 cells partially differentiated along the macrophage line [unpublished results of the inventors and co-workers]. […] The libraries screened in the efforts represent a unique compound collection populated by nontraditional compounds [(a) Whitby et al., Acc. Chem. Res. 2012, 45:1698-1709; and (b) Boger et al., Angew. Chem. Int. Ed. 2003, 42:4138-4176] designed to target protein-protein [(a) Shaginian et al., J. Am. Chem. Soc. 2009, 131:5564-5572; and (b) Whitby et al., J. Am. Chem. Soc. 2011, 133:10184-10194] or protein-DNA interactions [Stover et al., J. Am. Chem. Soc. 2009, 131:3342-3348] as well as the major enzyme classes [Otrubova et al., Bioorg. Med. Chem. Lett. 2014, 24:3807-3813].
Hits were confirmed in an ELISA assay for stimulated TNF-α release from human PMA differentiated THP-1 cells and this assay was used for establishing dose-response curves and measured EC50 values.

mouse macrophages = test: stimulated release of TNF-α from mouse macrophages; assay type: cell-based; details: for EC50: Macrophage
Text: EC50 values are derived from dose-response curves for the stimulated release of TNF-α from differentiated THP-1 cells or mouse macrophages are shown beneath each appropriate structural formula of Compounds 8-12. Half maximal effective concentration (EC50) refers to the concentration of a drug, antibody or toxicant that induces a response halfway between the baseline and maximum after a specified exposure time. It is commonly used as a measure of a drug's potency.

[2] = THP-1, Scheme 1, footnote a, read-out: EC50 TNF-α release from human THP-1 cells
[3] = Mus musculus, Scheme 1, footnote b, read-out: EC50 TNF-α release from mouse macrophages

EC50 [1, 2]	EC50 (mouse macrophages; [3])	Compound	further results
> 5000 nM	> 5000 nM	O=C(N[C@H]1C[C@@H]1c1ccccc1)[C@H]1CN(C(=O)c2ccc(C(=O)N3C[C@@H](C(=O)N[C@@H]4C[C@H]4c4ccccc4)[C@H](C(=O)N[C@@H]4C[C@H]4c4ccccc4)C3)cc2)C[C@@H]1C(=O)N[C@H]1C[C@@H]1c1ccccc1 [Compound 23, (3R,4R)-1-(4-((3S,4S)-3,4-Bis(((1R,2S)-2-phenyl-cyclopropyl)carbamoyl)-pyrrolidine-1-carbonyl)-benzoyl)—N^3,N^4-bis((1S,2R)-2-phenylcyclopropyl)-pyrrolidine-3,4-dicarboxamide]	
> 5000 nM	> 5000 nM	O=C(N[C@@H]1C[C@H]1c1ccccc1)[C@H]1CN(C(=O)c2ccc(C(=O)N3C[C@@H](C(=O)N[C@@H]4C[C@H]4c4ccccc4)[C@H](C(=O)N[C@@H]4C[C@H]4c4ccccc4)C3)cc2)C[C@@H]1C(=O)N[C@@H]1C[C@H]1c1ccccc1 [Compound 24, (3S,4S)-1-(4-((3R,4R)-3,4-Bis(((1R,2S)-2-phenyl-cyclopropyl)carbamoyl)-pyrrolidine-1-carbonyl)-benzoyl)—N^3,N^4-bis((1R,2S)-2-phenylcyclopropyl)-pyrrolidine-3,4-dicarboxamide]	
≥ 5000 nM	> 5000 nM	O=C(N[C@H]1C[C@@H]1c1ccccc1)[C@H]1CN(C(=O)c2ccc(C(=O)N3C[C@H](C(=O)N[C@@H]4C[C@H]4c4ccccc4)[C@@H](C(=O)N[C@@H]4C[C@H]4c4ccccc4)C3)cc2)C[C@@H]1C(=O)N[C@H]1C[C@@H]1c1ccccc1 [Compound 26, (3R,4R)-1-(4-((3R,4R)-3,4-Bis(((1R,2S)-2-phenylcyclopropyl)carbamoyl)-pyrrolidine-1-carbonyl)-benzoyl)—N^3,N^4-bis((1S,2R)-2-phenylcyclopropyl)-pyrrolidine-3,4-dicarboxamide]	

Continued, compound first:

Compound	EC50 [1, 2]	EC50 (mouse macrophages; [3])	further results
O=C(N[C@H]1C[C@@H]1c1ccccc1)[C@@H]1CN(C(=O)c2ccc(C(=O)N3C[C@@H](C(=O)N[C@@H]4C[C@H]4c4ccccc4)[C@H](C(=O)N[C@@H]4C[C@H]4c4ccccc4)C3)cc2)C[C@H]1C(=O)N[C@H]1C[C@@H]1c1ccccc1 [Compound 25, (3S,4S)-1-(4-((3S,4S)-3,4-Bis(((1R,2S)-2-phenylcyclopropyl)carbamoyl)-pyrrolidine-1-carbonyl)-benzoyl)—N^3,N^4-bis((1S,2R)-2-phenylcyclopropyl)-pyrrolidine-3,4-dicarboxamide]	6 nM	> 5000 nM	
O=C(N[C@@H]1C[C@H]1c1ccccc1)[C@H]1CN(C(=O)c2ccc(C(=O)N3C[C@@H](C(=O)N[C@H]4C[C@@H]4c4ccccc4)[C@H](C(=O)N[C@H]4C[C@@H]4c4ccccc4)C3)cc2)C[C@@H]1C(=O)N[C@@H]1C[C@H]1c1ccccc1 [Compound 27, (3S,4S)-1-(4-((3R,4R)-3,4-Bis(((1R,2S)-2-phenyl-cyclopropyl)carbamoyl)-pyrrolidine-1-carbonyl)-benzoyl)—N^3,N^4-bis((1S,2R)-2-phenylcyclopropyl)-pyrrolidine-3,4-dicarboxamide]	20 nM	≥ 5000 nM	
O=C(N[C@H]1C[C@@H]1c1ccccc1)[C@@H]1CN(C(=O)c2ccc(C(=O)N3CCCC3)cc2)C[C@H]1C(=O)N[C@H]1C[C@@H]1c1ccccc1 [Compound 30, (3S,4S)—N^3,N^4-Bis((S, 2R)-2-phenyl-cyclopropyl)-1-(4-(pyrrolidine-1-carbonyl)benzoyl)-pyrrolidine-3,4-dicarboxamide]			EC50 ([1]; THP-1, running text, read-out: EC50, stimulated release of TNF-α from differentiated human THP-1 cells): 2000 nM; fold less active/potent than diprovocim-1 (3) ([1]; human THP-1 cells): 20,000 fold; fold less active than 29 (mouse macrophages; printed as in mouse macrophages): 10 fold
O=C(N[C@H]1C[C@@H]1c1ccccc1)C1CN(C(=O)C#CC(=O)N2C[C@@H](C(=O)N[C@H]3C[C@@H]3c3ccccc3)[C@H](C(=O)N[C@H]3C[C@@H]3c3ccccc3)C2)C[C@H]1C(=O)N[C@H]1C[C@@H]1c1ccccc1 (stereo partly drawn) [Compound 35, (3S,3′S,4S,4′S)-1,1′-(But-2-ynedioyl)-bis(N^3,N^4-bis((1S,2R)-2-phenylcyclopropyl)-pyrrolidine-3,4-dicarboxamide)]			EC50 ([1]; THP-1, Table 1, TNF-α release from human THP-1 cells, read-out: EC50 (nM) (THP-1)): > 5000 nM; EC50 (mouse macrophages; Table 1, TNF-α release from mouse macrophages, read-out: EC50 (nM) (mouse)): > 5000 nM
